# Measured values published in patent US20030033631A1, “Method for reducing pest damage to corn by treating transgenic corn seeds with thiamethoxam pesticide” (Monsanto Technology, L.L.C., priority 2000, published 2003).
# Test system: western and northern corn rootworm
# Test: Field trial of corn rootworm feeding damage to corn roots (Iowa 1-6 rating)
# Type: in vivo
# Settings: Cry3Bb.11231 transgenic corn seeds treated with thiamethoxam (300 or 400 gm AI/100 kg seed) compared with transgenic seeds without pesticide treatment, Iowa 1-6 root rating
# Source text: Field trials for the determination of efficacy of transgenic event Cry3Bb.11231 in corn seed in combination with corn root worm pesticide seed treatments against western and northern corn rootworm.
# Field trials can be run in accordance with pertinent protocols and in conformance with USDA notification requirements. The purpose of the trials is to determine the efficacy of transgenic event Cry3Bb.11231 in corn seed in combination with corn root worm seed treatments against western and northern corn root worm.
# For each growing site that is selected, the plot design would included the following:
# The following seed treatment combinations can be used for each growing area: […]
# The determination of damage by corn rootworm can be made according to the following protocol. […] In that system, the root systems of 10 corn plants per plot are recovered and scored using the 1-6 rating scale, where: 1=no injury or only a few minor feeding scars, 2=feeding injury evident, but no roots eaten back to 1½ inches of the plant, 3=at least one root eaten off to within 1½ inches of the plant, but never an entire node of roots destroyed, 4=one node of roots eaten back to within 1½ inches of the plant, 5=two nodes (circles) of roots eaten back to within 1½ inches of the plant, 6=three nodes (circles) of roots eaten back to within 1½ inches of the plant.
smiles,measurement,value
"CN1COCN(Cc2cnc(Cl)s2)/C1=N\[N+](=O)[O-] [thiamethoxam, 3-[(2-chloro-5-thiazolyl)mehthyl]tetrahydro-5-methyl-N-nitro-4H-1,3,5-oxadiazin-4-imine]",resistance to corn rootworm damage,more resistant to corn rootworm damage than the transgenic seeds without such pesticide treatment
